Test results published in patent US8946190B2, “Medium-chain length fatty acids, salts and triglycerides in combination with gemcitabine for treatment of pancreatic cancer” (priority 2007, dated 2015).

What was measured:
Panc02 cells = experiment: In vitro cytotoxicity (MTT) on pancreatic cancer cells; format: cell-based; settings: Mus musculus, 24 h cell culture
Procedure: This assay was performed to determine the effect of compounds of the present invention on cell cytotoxicity. Panc02 cells were incubated in presence or absence of compounds in RPMI-1640 conditioned media. After 24 hours incubation, 50 μl of 3-(4,5-dimethyl-2-thiazyl)-2,5-diphenyl-2H-tetrazolium bromide ([…]; 2 mg/ml) was added and further incubated for 4 hours. The supernatant was discarded and 100 μl of dimethylsulfoxide (DMSO) was added. Absorbance was read at 570 nm with an ELISA Tecan Sunrise plate reader. The control group consisted of cells without compounds and is referred to as 100% of viable cells. IC50 was determined using Prism software.

[1] = tested on: syngeneic Panc02 pancreas tumor; experiment: Panc02 mouse pancreatic cancer model, intradermal syngeneic tumor growth; format: in vivo, C57BL/6 mice; settings: for anticancer activity in the early phase of the treatment: given alone
Procedure: The syngeneic Panc02 is a pancreatic adenocarcinoma tumor cell line obtained from NCI (0507232). Panc02 cells are positive for Ki-Ras, p53, HerNEU and CDK. Panc02 were grown in RPMI-1640 containing 10% fetal bovine serum. At day 0, 50 μl of 7.5×10^5 viable Panc02 cells were intradermally injected to produce localized tumors in 6- to 8-week old C57BL/6 mice. The animals were then serially monitored by manual palpation for evidence of tumor. Mice were then treated every day with oral administration of vehicle (negative control), or sodium decanoate and with intraperitoneal injection of gemcitabine (50 mg/kg) at day 21, 28, 35 and 42. Mice were sacrificed between days 36 to 50. Serial tumor volume was obtained by bi-dimensional diameter measurements with calipers, using the formula 0.4 (a×b^2) where “a” was the major tumor diameter and “b” the minor perpendicular diameter. Tumors were palpable, in general, 3-5 days post-inoculation. Percentage of tumor growth is reported as the percentage of growth of the pancreatic tumor on a given day relative to that growth which is observed on the first day of treatment with medium-chain length fatty acid, or sodium salt or triglyceride or vehicle (control). T/C is defined as: Treated Tumor Growth CYO/Control Tumor Growth (%).
The effect of sodium dodecanoate and gemcitabine in pancreatic Panc02 cancer was determined as described in Example 2.

[2] = tested on: orthotopic syngeneic Panc02 pancreatic tumor; experiment: Panc02 mouse orthotopic pancreatic cancer model, survival; format: in vivo, C57BL/6 mice; parameters: % Survival: concentration or dose not given beside the values; settings: for % Survival: Table 2
Procedure: At day 0, 50 μl of 1×10^6 viable Panc02 cells per ml were injected onto the pancreas to produce orthotopic tumors in 6- to 8-week old C57BL/6 mice. Mice were then treated every day with oral administration of vehicle (negative control), or sodium decanoate and with intraperitoneal injection of gemcitabine (50 mg/kg) once a week (day 1, 8, 15, etc.).
The effect of gemcitabine and tricaprin in combination with gemcitabine in orthotopic pancreatic Panc02 cancer was determined as described in Example 3.

[3] = tested on: syngeneic Panc02 pancreas tumor; experiment: Panc02 mouse pancreatic cancer model, intradermal syngeneic tumor growth; format: in vivo, C57BL/6 mice
[4] = tested on: metastatic pancreatic cancer; settings: pancreatic cancer patients after metastasis; cited from earlier work

Structure (SMILES): CCCCCCCCCC(=O)O [Decanoic acid]
- IC50 (Panc02 cells): 630 µM

Structure (SMILES): Nc1ccn([C@@H]2O[C@H](CO)[C@@H](O)C2(F)F)c(=O)n1 [Gemcitabine]
- inhibition of tumor growth (p<0.05) ([1]; FIG. 1, gemcitabine 50 mg/kg, day 27 to 34): significant inhibition
- inhibition of tumor growth (p<0.05) ([1]; FIG. 2, gemcitabine alone, day 23 to 37): significant (p<0.05) inhibition
- anticancer activity in the early phase of the treatment ([1]; FIG. 3): did not display anticancer activities
- anticancer activity in the early phase of the treatment ([1]; FIG. 4): did not display anticancer activities
- inhibition of tumor growth (p<0.05) ([1]; FIG. 6, gemcitabine 50 mg/kg, day 44): significant inhibition
- mortality ([1]; increased concentration of gemcitabine): mortality is observed
- survival compared with mice that had received vehicle ([2]; FIG. 5): prolonged survival
- Median survival ([2]; FIG. 5, gemcitabine 50 mg/kg once a week, sodium decanoate oral 200 mg/kg every day): 71 days
- survival compared with mice that had received vehicle ([2]; FIG. 7): prolonged survival
- Median survival ([2]; FIG. 7, gemcitabine 50 mg/kg, tricaprin oral 600 mg/kg): 53.5 days
- % Survival ([2]; day 58): 86%
- % Survival ([2]; day 72): 42%
- % Survival ([2]; day 83): 28%
- % Survival ([2]; day 87): 14%
- % Survival ([2]; day 92): 0%
- % Survival ([2]; day 92, listed as gemcitabine): all mice are dead
- T/C ([3]; FIG. 3, gemcitabine 25 mg/kg alone): > 40
- inhibition of tumor growth (p<0.05) ([3]; FIG. 3, gemcitabine 25 mg/kg, day 39): significant inhibition
- T/C ([3]; FIG. 4, gemcitabine 10 mg/kg alone): no T/C<40
- inhibition of tumor growth (p<0.05) ([3]; FIG. 4, gemcitabine 10 mg/kg, day 41): significant inhibition
- one-year survival [4]: 18%

Structure (SMILES): CCCCCCCCCC(=O)[O-].[Na+] [PBI-1402]
- anticancer activity in the early phase of the treatment ([1]; FIG. 3): did not display anticancer activities
- anticancer activity in the early phase of the treatment ([1]; FIG. 4): did not display anticancer activities

Structure (SMILES): CCCCCCCCCC(=O)[O-].[Na+] [Sodium decanoate]
- IC50 (Panc02 cells): 520 µM
- inhibition of tumor growth (p<0.05) ([1]; FIG. 1, sodium decanoate oral 100 mg/kg, day 23 to 44): significant inhibition
- tumor growth inhibition compared to control (p<0.05) ([1]; FIG. 2, sodium decanoate 400 mg/kg, day 23 to 37): significant
- inhibition of tumor growth (p<0.05) ([1]; FIG. 2, sodium decanoate oral 100, 200 and 400 mg/kg): significant (p<0.05) inhibition of the tumor growth in a dose dependent fashion

Structure (SMILES): CCCCCCCCCCCC(=O)[O-].[Na+] [Sodium dodecanoate]
- IC50 (Panc02 cells): 150 µM
- inhibition of tumor growth (p<0.05) ([1]; FIG. 6, sodium dodecanoate oral 200 mg/kg, day 44): significant inhibition
